Source: ChEMBL document CHEMBL2407022, “Advancement of Imidazo[1,2-a]pyridines with Improved Pharmacokinetics and Nanomolar Activity Against Mycobacterium tuberculosis” (ACS Med Chem Lett, 2013)
Values after ≈ are worked out from the molar mass of the structure shown.

How the values were obtained:
Type in all cases: functional
Conditions in all cases: 336 h
[1] = system: Mycobacterium tuberculosis; experiment: Antimycobacterial activity against isoniazid, rifampin, ethambutol, streptomycin, kanamycin and ofloxacin-resistant Mycobacterium tuberculosis after 14 days
[2] = system: Mycobacterium tuberculosis; experiment: Antimycobacterial activity against isoniazid, rifampin, ethambutol, kanamycin and rifabutin-resistant Mycobacterium tuberculosis after 14 days
[3] = system: Mycobacterium tuberculosis; experiment: Antimycobacterial activity against isoniazid, rifampin, ethambutol, kanamycin and ofloxacin-resistant Mycobacterium tuberculosis after 14 days

Row | Compound | MIC99 [1] | MIC99 [2] | MIC99 [3]
1 | Cc1ccn2c(C(=O)NCc3ncc(C(F)(F)F)cc3Cl)c(C)nc2c1 | 0.8 µM (≈ 0.306 µg/mL) | 13 µM (≈ 4.98 µg/mL) | 
2 | Cc1ccc2nc(C)c(C(=O)NCc3ccccc3)n2c1 | < 0.04 µM | 2.3 µM (≈ 0.642 µg/mL) | < 0.04 µM
3 | O=[N+]([O-])c1cn2c(n1)OC[C@@H](OCc1ccc(OC(F)(F)F)cc1)C2 [PRETOMANID] | 0.9 µM (≈ 0.323 µg/mL) | 0.5 µM (≈ 0.18 µg/mL) | 0.2 µM (≈ 0.0719 µg/mL)
4 | Cc1ccn2c(C(=O)NCc3ccc(Oc4ccc(F)cc4)cc3)c(C)nc2c1 | < 0.03 µM | 0.8 µM (≈ 0.312 µg/mL) | < 0.03 µM
